Measurements taken from PubChem BioAssay (NCI).
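Results reflect a 48-hour exposure of cells in 96-well plates to compound at five concentrations. TGI denotes the concentration required for complete inhibition of growth.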

Assays:
Assay in all cases: NCI-60 cell line screen, 48 h
[1] = tested on: MDA-MB-231 breast
[2] = tested on: SN12C renal
[3] = tested on: DU-145 prostate
[4] = tested on: IGROV1 ovarian
[5] = tested on: M14 melanoma
[6] = tested on: K-562 leukemia
[7] = tested on: COLO 205 colon
[8] = tested on: SK-MEL-28 melanoma
[9] = tested on: SNB-75 CNS
[10] = tested on: SK-MEL-2 melanoma
[11] = tested on: NCI-H226 lung
[12] = tested on: HS 578T breast
[13] = tested on: A498 renal
[14] = tested on: KM12 colon
[15] = tested on: SF-539 CNS
[16] = tested on: TK-10 renal
[17] = tested on: LOX IMVI melanoma
[18] = tested on: NCI-H23 lung
[19] = tested on: EKVX NSCLC
[20] = tested on: MDA-N
[21] = tested on: A549 NSCLC
[22] = tested on: UACC-257 melanoma
[23] = tested on: OVCAR-8 ovarian
[24] = tested on: NCI/ADR-RES ovarian
[25] = tested on: SF-295 CNS
[26] = tested on: HL-60(TB) leukemia
[27] = tested on: CCRF-CEM leukemia
[28] = tested on: SNB-19 CNS
[29] = tested on: U251 CNS
[30] = tested on: CAKI-1 renal
[31] = tested on: MALME-3M melanoma
[32] = tested on: HCC-2998 colon
[33] = tested on: 786-0 renal
[34] = tested on: HOP-92 NSCLC
[35] = tested on: MCF7 breast
[36] = tested on: SR leukemia
[37] = tested on: HCT-15 colon
[38] = tested on: OVCAR-3 ovarian
[39] = tested on: HCT-116 colon
[40] = tested on: SK-OV-3 ovarian
[41] = tested on: RXF 393 renal
[42] = tested on: NCI-H460 lung
[43] = tested on: OVCAR-5 ovarian
[44] = tested on: OVCAR-4 ovarian
[45] = tested on: ACHN renal
[46] = tested on: HT29 colon
[47] = tested on: SF-268 CNS
[48] = tested on: UACC-62 melanoma
[49] = tested on: BT-549 breast
[50] = tested on: MOLT-4 leukemia
[51] = tested on: SW-620 colon
[52] = tested on: MDA-MB-435
[53] = tested on: PC-3 prostate
[54] = tested on: NCI-H522 lung
[55] = tested on: SK-MEL-5 melanoma
[56] = tested on: RPMI-8226 leukemia
[57] = tested on: UO-31 renal
[58] = tested on: T-47D breast
[59] = tested on: HOP-62 NSCLC

COc1cc(C)c2c(=O)c3ccccc3n(C)c2c1
TGI [1]: > 100 µM
TGI [2]: 41.5 µM
TGI [3]: > 100 µM
TGI [4]: 89.8 µM
TGI [5]: 60.8 µM
TGI [6]: 39.1 µM
TGI [7]: 91.1 µM
TGI [8]: 89.3 µM
TGI [9]: 72.8 µM
TGI [10]: 78.3 µM
TGI [11]: 69 µM
TGI [12]: 72.6 µM
TGI [13]: 56.1 µM
TGI [14]: > 100 µM
TGI [15]: 34 µM
TGI [16]: > 100 µM
TGI [17]: 34.4 µM
TGI [18]: 77 µM
TGI [19]: 91.9 µM
TGI [20]: > 100 µM
TGI [21]: > 100 µM
TGI [22]: 77 µM
TGI [23]: 78.8 µM
TGI [24]: > 100 µM
TGI [25]: 34.9 µM
TGI [26]: 69.7 µM
TGI [27]: 75.4 µM
TGI [28]: 98.6 µM
TGI [29]: 44.8 µM
TGI [30]: 76.5 µM
TGI [31]: 73.2 µM
TGI [32]: > 100 µM
TGI [33]: > 100 µM
TGI [34]: 25.8 µM
TGI [35]: > 100 µM
TGI [36]: 43 µM
TGI [37]: > 100 µM
TGI [38]: 52.7 µM
TGI [39]: 34 µM
TGI [40]: > 100 µM
TGI [41]: 40.4 µM
TGI [42]: > 100 µM
TGI [43]: > 100 µM
TGI [44]: 45.6 µM
TGI [45]: 55.7 µM
TGI [46]: 29 µM
TGI [47]: 95.9 µM
TGI [48]: 39.2 µM
TGI [49]: 52.7 µM
TGI [50]: > 100 µM
TGI [51]: > 100 µM
TGI [52]: > 100 µM
TGI [53]: 78.2 µM
TGI [54]: 5.74 µM

c1cc(Sc2nc(Sc3ccncc3)nc(Sc3ccncc3)n2)ccn1
TGI [1]: > 100 µM
TGI [2]: > 100 µM
TGI [3]: > 100 µM
TGI [4]: > 100 µM
TGI [55]: > 100 µM
TGI [5]: > 100 µM
TGI [6]: > 100 µM
TGI [56]: > 100 µM
TGI [7]: > 100 µM
TGI [8]: > 100 µM
TGI [10]: > 100 µM
TGI [11]: > 100 µM
TGI [12]: > 100 µM
TGI [13]: > 100 µM
TGI [14]: > 100 µM
TGI [15]: > 100 µM
TGI [16]: > 100 µM
TGI [17]: > 100 µM
TGI [18]: > 100 µM
TGI [19]: > 100 µM
TGI [20]: > 100 µM
TGI [21]: > 100 µM
TGI [22]: > 100 µM
TGI [23]: > 100 µM
TGI [24]: > 100 µM
TGI [25]: > 100 µM
TGI [57]: > 100 µM
TGI [26]: > 100 µM
TGI [27]: > 100 µM
TGI [28]: > 100 µM
TGI [29]: > 100 µM
TGI [58]: > 100 µM
TGI [30]: > 100 µM
TGI [31]: > 100 µM
TGI [32]: > 100 µM
TGI [33]: > 100 µM
TGI [34]: > 100 µM
TGI [35]: > 100 µM
TGI [37]: > 100 µM
TGI [38]: > 100 µM
TGI [39]: > 100 µM
TGI [40]: > 100 µM
TGI [41]: > 100 µM
TGI [42]: > 100 µM
TGI [43]: > 100 µM
TGI [44]: > 100 µM
TGI [45]: > 100 µM
TGI [46]: > 100 µM
TGI [47]: > 100 µM
TGI [48]: > 100 µM
TGI [49]: > 100 µM
TGI [50]: > 100 µM
TGI [59]: > 100 µM
TGI [51]: > 100 µM
TGI [52]: > 100 µM
TGI [53]: > 100 µM
TGI [54]: > 100 µM
